Laboratory results from US20150374861A1, “KIT FOR TUMOR IMAGING” (THOMAS JEFFERSON UNVERSITY, priority 2013, published 2015).
Where two headings read alike, the source gives them in different places.

How the values were obtained:
[1] = literature, Ga-67 Citrate 10 mCi, Cu-64 ATSM 25 mCi, cited from earlier work; for Effective Dose: FDG-PET/CT F-18 10 mCi, Sestamibi Tc-99m 30 mCi, FDG-PET/PM w/o CT F-18 10 mCi
[2] = test system: primary tumor site and metastatic lymph nodes; assay: Whole body PET/CT imaging of breast cancer patients; assay type: in vivo, human; settings: six PET/CT patients: six primary lesions, four involved lymph nodes
Method: Caucasian, Hispanic, African American or Asian non-pregnant women, eighteen years of age or older, with newly diagnosed, histologically proven BC were enrolled. Image guided percutaneous biopsy was performed two to six weeks prior to this imaging procedure. Each patient signed the informed consent form. For this feasibility study, a biostatistician determined that six patients be studied with PET and thirteen with PEM. This determination was based on the assumption that Cu-64-TP3805 will detect 80% of the lesions and there will be 87% power to conclude the use of this agent to diagnosis BC.
Each patient fasted for six hours prior to F-18-FDG injection. Before F-18-FDG injection, blood sugar was monitored. Patients with sugar levels below 250 mg/DL were enrolled. […]
For Cu-64-TP3805 imaging, patients neither fasted nor were blood sugar levels determined. […]
All images were read by two board certified nuclear medicine physicians and a board certified breast imaging physician. […] For six patients with PET/CT, standardized uptake values (SUV) were calculated for the primary tumor site and metastatic lymph nodes, and compared for the respective radiotracers. Metabolic tumor volume was calculated using 50% isocontour geometry method for comparison, as it is relatively a better parameter, as compared to SUV.

Row | SMILES | Effective Dose [1] | Liver Dose [1] | detection of lesions [2] | Effective Dose ([1]; listed as FDG-PET/CT) | Effective Dose ([1]; listed as FDG-PET/PM w/o CT)
1 | CNC1=NN=C(C)C(C)=NN=C(NC)[S][64Cu][S]1 [Cu-64 ATSM] | 33.3 mSv | 361 mSv | – | – | –
2 | OC[C@H]1O[C@@H](O)[C@H]([18F])[C@@H](O)[C@@H]1O [F-18-FDG] | – | – | ten lesions detected | 31.9 mSv | 2.8 mSv
3 | O=C([O-])CC(O)(CC(=O)[O-])C(=O)[O-].[Ga+3] [Ga-67 Citrate] | 39 mSv | 69 mSv | – | – | –
